Measured values: patent US7452687B2 (Asahi Kasei Pharma Corporation, priority 2002, dated 2008)
Entries after “also recorded” stand apart in the source; their conditions may differ. Like-named read-outs stand apart in the source and are kept apart here. Blank lines part the entries; values can stand above or below the compound they belong to.

Columns and labels:
[1] = test system: myo-inositol dehydrogenase; experiment: Study on buffers in reagents for myo-inositol quantitative determination (acceleration stability test of R-2 reagent); conditions: 100 mM buffer pH 8.8; R-2 stored at 30° C. for 20 days, tested on 7th, 12th, 20th days
[2] = test system: myo-inositol dehydrogenase derived from the strain F.sp.671; experiment: Relative activity assay (initial velocity with each coenzyme or substrate); type: biochemical, Flavobaterium sp. 671; conditions: for Substrate specificity (enzyme activity for each substrate): coenzyme NAD, substrate 20 mM, pH 10.0, 37° C., initial velocity to myo-inositol as 100%; for Relative activity ratio for each coenzyme used: substrate 20 mM myo-inositol, coenzyme 2 mM, 100 mM glycine buffer pH 10.0, 37° C., NAD as 100%
Procedure: The relative activities were determined with the coenzyme changed according to the following method. Relative Activity Assay <Composition of Reaction Solution> • Buffer: 100 mM glycine buffer (pH 10.0) • Substrate: 20 mM myo-inositol (Sigma, Co., Ltd.) • Coenzyme: 2 mM (NAD, thio-NAD, NADP, thio NADP; Oriental Yeast Co., Ltd.) One ml of the above reaction solution is added to a quartz cell. Then, the quartz cell is placed in a spectrophotometer adjusted at a temperature of 37° C. The cell is incubated for 5 minutes or more and then 20 μl of an enzyme solution of about 1.0 U/ml is added thereto and mixed. The initial velocity is obtained from an absorbance change per minute at a wavelength peculiar to each reduced coenzyme. The initial velocity obtained with each coenzyme is compared with the initial velocity (100%) obtained using NAD as a coenzyme to provide the relative activity. According to the relative activity assay described above, the measurement was performed using the same concentration of D-chiro-inositol, D-mannose, D-fructose, D-galactose, mannitol, epi-inositol, or scyllo-inositol in place of the substrate in the reaction solution. […] The substrates used include D-mannose, D-fructose, D-galactose, mannitol, D-chiro-inositol (as above: Wako Pure Chemical Industries, Ltd.), myo-inositol, epi-inositol, and scyllo-inositol (as above: Sigma, Co., Ltd.). Following the relative activity assay described above, the measurement was performed using each of 100 mM tris buffer (pH 7.0-9.0) and 100 mM glycine buffer (pH 9.0-11.0) in place of 100 mM of pH 10.0 glycine buffer in the reaction solution. […] Using the relative activity assay described above, the concentration of myo-inositol and the concentrations of NAD and thio-NAD were changed to determine Km values respectively. Using the activity assay described above, the substrate concentration was changed to calculate the Km value.

[3] = test system: myo-inositol dehydrogenase; conditions: pH 8.8

- Stability of sensitivity of R-2 reagent by buffer, in comparison to the standard solution [1]: stable sensitivity
Compound: O=C(O)CNC(CO)(CO)CO [Tricine, N-Tris(hydroxymethyl)methylglycine]

- Substrate specificity (enzyme activity for each substrate) [2]: 18%
Compound: OC1C(O)C(O)C(O)C(O)C1O [chiro-Inositol, D-chiro-inositol]

- Substrate specificity (enzyme activity for each substrate) [2]: 2%
Compound: OC1C(O)C(O)C(O)C(O)C1O (stereo not drawn) [epi-Inositol, epi-inositol]

- Substrate specificity (enzyme activity for each substrate) [2]: 100%
- Km ([2]; substrate concentration changed, read-out: Km value for substrate): 1.7 ± 0.2 mM
Compound: O[C@H]1[C@H](O)[C@@H](O)[C@H](O)[C@@H](O)[C@H]1O [myo-Inositol, myo-inositol]

- Substrate specificity (enzyme activity for each substrate) [2]: less than 1%
Compound: O[C@H]1[C@H](O)[C@@H](O)[C@H](O)[C@@H](O)[C@@H]1O [scyllo-Inositol, scyllo-inositol]

The next lines start with the compound.

Compound: O=C(O)CN(CCO)CCO [Bicine, N,N-Bis(hydroxyethyl)glycine]
- Stability of sensitivity of R-2 reagent by buffer, in comparison to the standard solution [1]: stable sensitivity; also recorded: most stable sensitivity

Compound: O=C(CO)[C@@H](O)[C@H](O)[C@H](O)CO [Fructose, D-fructose]
- Substrate specificity (enzyme activity for each substrate) [2]: less than 1%

Compound: O=C[C@H](O)[C@@H](O)[C@@H](O)[C@H](O)CO [Galactose, D-galactose]
- Substrate specificity (enzyme activity for each substrate) [2]: less than 1%

Compound: OC[C@@H](O)[C@@H](O)[C@H](O)[C@H](O)CO [Mannitol, mannitol]
- Substrate specificity (enzyme activity for each substrate) [2]: 0%

Compound: NC(=S)c1ccc[n+]([C@@H]2O[C@H](COP(=O)([O-])OP(=O)(O)OC[C@H]3O[C@@H](n4cnc5c(N)ncnc54)[C@H](O)[C@@H]3O)[C@@H](O)[C@H]2O)c1 [Thio-NAD, thio-nicotinamide adenine dinucleotide]
- Km ([2]; coenzyme concentration changed, read-out: Km value for coenzyme): 4.5 ± 1 mM
- Relative activity ratio for each coenzyme used [2]: 29%

Compound: NC(=S)c1ccc[n+]([C@@H]2O[C@H](COP(=O)([O-])OP(=O)(O)OC[C@H]3O[C@@H](n4cnc5c(N)ncnc54)[C@H](OP(=O)(O)O)[C@@H]3O)[C@@H](O)[C@H]2O)c1 [Thio-NADP, thio-nicotinamide adenine dinucleotide phosphate]
- Relative activity ratio for each coenzyme used [2]: 0%

Compound: Tris(hydroxymethyl)aminomethane
- Stability of sensitivity of R-2 reagent by buffer, in comparison to the standard solution [3]: stable sensitivity

Compound: nicotinamide adenine dinucleotide phosphate [NADP]
- Relative activity ratio for each coenzyme used [2]: 8%
